Assay results from patent publication US6908884B2, “Benzazolonylcarbonylcyclohexenones and their use as herbicides” (BASF Aktiengesellschaft, priority 2000, dated 2005).

Key:
ABUTH = assay: greenhouse post-emergence herbicidal test; assay type: in vivo, velvet leaf; settings: 125 or 250 g/ha (a.s.)
Excerpt: (§1) The seeds of the test plants were sown separately for each species. For the post-emergence treatment, the test plants were first grown to a plant height of from 3 to 15 cm, depending on the plant habit, and only then treated with the active compounds which had been suspended or emulsified in water. To this end, the test plants were either sown directly and grown in the same containers, or they were first grown separately as seedlings and transplanted into the test containers a few days prior to treatment. The rate of application for the post-emergence treatment was 250, 125, 62.5, 31.3 and/or 15.6 g/ha of active substance (a.s.). Depending on the species, the plants were kept at from 10 to 25° C., or 20-35° C., respectively. The test period extended over 2 to 4 weeks. During this time, the plants were tended, and their response to the individual treatments was evaluated. Evaluation was carried out using a scale of from 0 to 100. 100 means no emergence of the plants, or complete destruction of at least the aerial parts, and 0 means no damage, or normal course of growth. A damage of at least 95% corresponds to very good herbicidal action. The plants used in the greenhouse experiments were of the following species: [table]

AMARE = assay: greenhouse post-emergence herbicidal test; assay type: in vivo, redroot pigweed; settings: 125 or 250 g/ha (a.s.)
Excerpt: as §1

SETFA = assay: greenhouse post-emergence herbicidal test; assay type: in vivo, giant foxtail; settings: 125 or 250 g/ha (a.s.)
Excerpt: as §1

BRAPL = assay: greenhouse post-emergence herbicidal test; assay type: in vivo, marmalade grass; settings: 125 or 250 g/ha (a.s.)
Excerpt: as §1

PHBPU = assay: greenhouse post-emergence herbicidal test; assay type: in vivo, morning glory, common
Excerpt: as §1, with “The rate of application for the post-emergence treatment was 250, 125, 62.5, 31.3 and/or 15.6 g/ha of active substance (a.s.).” left out

POLPE = assay: greenhouse post-emergence herbicidal test; assay type: in vivo, lady's thumb; settings: 31.3 g/ha (a.s.), read-out: herbicidal action against POLPE
Excerpt: as §1

CHEAL = assay: greenhouse post-emergence herbicidal test; assay type: in vivo, lambs' quarters (goose-foot)
Excerpt: as §1, with “The rate of application for the post-emergence treatment was 250, 125, 62.5, 31.3 and/or 15.6 g/ha of active substance (a.s.).” left out

ECHCG = assay: greenhouse post-emergence herbicidal test; assay type: in vivo, barnyard grass
Excerpt: as §1, with “The rate of application for the post-emergence treatment was 250, 125, 62.5, 31.3 and/or 15.6 g/ha of active substance (a.s.).” left out

MATIN = assay: greenhouse post-emergence herbicidal test; assay type: in vivo, chamomile, false; settings: 125 or 62.5 g/ha (a.s.)
Excerpt: as §1

SINAL = assay: greenhouse post-emergence herbicidal test; assay type: in vivo, white mustard; settings: 125 or 62.5 g/ha (a.s.)
Excerpt: as §1

LAMAM = assay: greenhouse post-emergence herbicidal test; assay type: in vivo, henbit; settings: 125 or 62.5 g/ha (a.s.)
Excerpt: as §1

Cc1c(C(=O)C2=C(O)C3CCC(C3)C2=O)ccc2sc(=O)n(C)c12 (centres unmarked) [Example 4]
melting point: 101 to 110 °C

CCn1c(=O)sc2ccc(C(=O)C3=C(O)CCCC3=O)c(C)c21 [Compound I-1a.1131]
herbicidal action against ABUTH (ABUTH): very good herbicidal action (A damage of at least 95% corresponds to very good herbicidal action)

C=CCn1c(=O)oc2ccc(C(=O)C3=C(O)CCCC3=O)c(C)c21 [Compound I-1a.29]
herbicidal action against AMARE (AMARE): very good herbicidal action (A damage of at least 95% corresponds to very good herbicidal action)

CCCCn1c(=O)oc2ccc(C(=O)C3=C(O)CCCC3=O)c(C)c21 [Compound I-1a.6]
herbicidal action against AMARE (AMARE): very good herbicidal action (A damage of at least 95% corresponds to very good herbicidal action)

Cc1c(C(=O)C2=C(O)CCCC2=O)ccc2oc(=O)n(C)c12 [Example 6]
melting point: 207 to 209 °C

CCn1c(=O)sc2ccc(C(=O)C3=C(O)C4CCC(C4)C3=O)c(C)c21 (centres unmarked) [Compound I-1x.1131]
herbicidal action against SETFA (SETFA): very good herbicidal action (A damage of at least 95% corresponds to very good herbicidal action) | herbicidal action against BRAPL (BRAPL): very good herbicidal action (A damage of at least 95% corresponds to very good herbicidal action)

C=CCn1c(=O)sc2ccc(C(=O)C3=C(O)CC(C)(C)CC3=O)c(C)c21 [Example 5]
melting point: 143 to 150 °C

CCCCn1c(=O)oc2ccc(C(=O)C3=C(O)CC(C)(C)CC3=O)c(C)c21 [Example 10]
melting point: 115 to 116 °C

CCCn1c(=O)sc2ccc(C(=O)C3=C(O)CC(C)(C)CC3=O)c(C)c21 [Example 25]
melting point: 129 to 135 °C

CCCn1c(=O)oc2ccc(C(=O)C3=C(O)CC(C)(C)CC3=O)c(C)c21 [Example 29]
melting point: 189 to 193 °C

CCCCn1c(=O)sc2ccc(C(=O)C3=C(O)C4CCC(C4)C3=O)c(C)c21 (centres unmarked) [Compound I-1x.1134]
herbicidal action against SETFA (SETFA): very good herbicidal action (A damage of at least 95% corresponds to very good herbicidal action) | herbicidal action against ABUTH (ABUTH): very good herbicidal action (A damage of at least 95% corresponds to very good herbicidal action)

Cc1c(C(=O)C2=C(O)CC(C)(C)CC2=O)ccc2oc(=O)n(C)c12 [Example 7]
melting point: 139 to 143 °C

C=CCCn1c(=O)sc2ccc(C(=O)C3=C(O)C4CCC(C4)C3=O)c(C)c21 (centres unmarked) [Example 40]
melting point: 129 to 132 °C

Cc1c(C(=O)C2=C(O)CC(C)(C)CC2=O)ccc2sc(=O)n(Cc3ccccc3)c12 [Example 32]
melting point: 161 to 166 °C

CCn1c(=O)sc2ccc(C(=O)C3=C(O)C(C)(C)C(=O)C(C)(C)C3=O)c(C)c21 [Compound I-1d.1131]
herbicidal action against SETFA (SETFA): very good herbicidal action (A damage of at least 95% corresponds to very good herbicidal action) | herbicidal action against AMARE (AMARE): very good herbicidal action (A damage of at least 95% corresponds to very good herbicidal action) | herbicidal action against ABUTH (ABUTH): very good herbicidal action (A damage of at least 95% corresponds to very good herbicidal action)

CCCCn1c(=O)sc2ccc(C(=O)C3=C(O)C(C)(C)C(=O)C(C)(C)C3=O)c(C)c21 [Compound I-1d.1134]
herbicidal action against AMARE (AMARE): very good herbicidal action (A damage of at least 95% corresponds to very good herbicidal action) | herbicidal action against ABUTH (ABUTH): very good herbicidal action (A damage of at least 95% corresponds to very good herbicidal action)

Cc1c(C(=O)C2=C(O)CC(C)(C)CC2=O)ccc2sc(=O)n(C)c12 [Compound I-1c.1129, 3,4-dimethyl-5-(5′,5′-dimethyl-1′,3′-cyclohexanedion-2′-yl)-carbonylbenzothiazol-2-one]
herbicidal action against PHBPU (PHBPU; 125 or 62.5 g/ha (a.s.)): very good herbicidal action (A damage of at least 95% corresponds to very good herbicidal action)

CCn1c(=O)sc2ccc(C(=O)C3=C(O)CC(C)(C)CC3=O)c(C)c21 [Compound I-1c.1131]
herbicidal action against SETFA (SETFA): very good herbicidal action (A damage of at least 95% corresponds to very good herbicidal action)

CC#CCn1c(=O)sc2ccc(C(=O)C3=C(O)CC(C)(C)CC3=O)c(C)c21 [Example 33]
melting point: 147 to 149 °C

Cc1c(C(=O)C2=C(O)C(C)(C)C(=O)C(C)(C)C2=O)ccc2sc(=O)n(C)c12 [Compound I-1d.1129, 3,4-dimethyl-5-(4′,4′,6′,6′-tetramethyl-1′,3′,5′-cyclohexane-trion-2′-yl)-carbonylbenzothiazol-2-one]
pest or weed control at 31.3 g/ha (POLPE): ≥ 95% | herbicidal action against CHEAL (CHEAL; 16.5 g/ha of a.s.): good to very good herbicidal action | pest or weed control at 31.3 g/ha (CHEAL; Chenopodium album, 31.3 g/ha (a.s.), read-out: herbicidal action against CHEAL): ≥ 95% | herbicidal action against ECHCG (ECHCG; 16.5 g/ha of a.s.): good to very good herbicidal action | herbicidal action against ECHCG (ECHCG; 31.3 g/ha (a.s.)): good to very good herbicidal action | herbicidal action against PHBPU (PHBPU; 16.5 g/ha of a.s.): very good herbicidal action (A damage of at least 95% corresponds to very good herbicidal action) | herbicidal action against PHBPU (PHBPU; 31.3 g/ha (a.s.)): very good herbicidal action (A damage of at least 95% corresponds to very good herbicidal action)

CCn1c(=O)sc2ccc(C(=O)C3=C(n4cccn4)CC(C)(C)CC3=O)c(C)c21 [Example 21]
melting point: 150 to 151 °C

Cc1c(C(=O)C2=C(O)CCCC2=O)ccc2sc(=O)n(C)c12 [Compound I-1a.1129, 3,4-dimethyl-5-(1′,3′-cyclohexanedion-2′-yl)carbonylbenzothiazol-2-one]
herbicidal action against MATIN (MATIN): very good herbicidal action (A damage of at least 95% corresponds to very good herbicidal action) | herbicidal action against SINAL (SINAL): very good herbicidal action (A damage of at least 95% corresponds to very good herbicidal action) | herbicidal action against LAMAM (LAMAM): very good herbicidal action (A damage of at least 95% corresponds to very good herbicidal action)
